# Data: the supplement of paper PMC4862054
# Key:
# Conditions in all cases: incubation time: 72 h
# MDA-MB-436 [1] = assay: normalised response (% of control), CellTox Green; higher = less cell death (100 = DMSO, 0 = benzethonium chloride kill control)
# Outline: (§1)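 Normalised signals at single concentrations make up the values. They come from breast cancer cell lines seeded (20 µl suspension) into 384-well plates with compound at 5 concentrations in 10-fold steps over a compound-specific 10,000-fold range, incubated 72 h, and read for CellTox Green fluorescence then CellTiter-Glo luminescence. Each plate was normalised to 0.1 % DMSO (100) and a positive kill control (0).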
# MDA-MB-453 = assay: as above
# Outline: as §1
# CAL-148 [2] = assay: as above
# Outline: as §1
# MDA-MB-231 [3] = assay: as above
# Outline: as §1
# MFM-223 = assay: as above
# Outline: as §1
# MCF-10A [4] = assay: as above
# Outline: as §1
# MDA-MB-468 = assay: as above
# Outline: as §1
# HDQ-P1 [5] = assay: as above
# Outline: as §1
# DU-4475 [6] = assay: as above
# Outline: as §1
# CAL-51 [7] = assay: as above
# Outline: as §1
# HCC1937 [8] = assay: as above
# Outline: as §1
# BT-474 [9] = assay: as above
# Outline: as §1
# CAL-120 = assay: as above
# Outline: as §1
# BT-549 [10] = assay: as above
# Outline: as §1
# CAL-85-1 [11] = assay: as above
# Outline: as §1
# HCC1599 = assay: as above
# Outline: as §1
# Hs578T [12] = assay: as above
# Outline: as §1
# MDA-MB-436 [13] = assay: normalised response (% of control), CellTiter-Glo; higher = more viable cells (100 = DMSO, 0 = benzethonium chloride kill control)
# Outline: as §1
# CAL-148 [14] = assay: as above
# Outline: as §1
# MDA-MB-231 [15] = assay: as above
# Outline: as §1
# MCF-10A [16] = assay: as above
# Outline: as §1
# HDQ-P1 [17] = assay: as above
# Outline: as §1
# DU-4475 [18] = assay: as above
# Outline: as §1
# CAL-51 [19] = assay: as above
# Outline: as §1
# HCC1143 = assay: as above
# Outline: as §1
# HCC1937 [20] = assay: as above
# Outline: as §1
# BT-474 [21] = assay: as above
# Outline: as §1
# SK-BR-3 = assay: as above
# Outline: as §1
# BT-549 [22] = assay: as above
# Outline: as §1
# CAL-85-1 [23] = assay: as above
# Outline: as §1
# Hs578T [24] = assay: as above
# Outline: as §1
SMILES,normalised response (MDA-MB-436 [1]),normalised response (MDA-MB-453),normalised response (CAL-148 [2]),normalised response (MDA-MB-231 [3]),normalised response (MFM-223),normalised response (MCF-10A [4]),normalised response (MDA-MB-468),normalised response (HDQ-P1 [5]),normalised response (DU-4475 [6]),normalised response (CAL-51 [7]),normalised response (HCC1937 [8]),normalised response (BT-474 [9]),normalised response (CAL-120),normalised response (BT-549 [10]),normalised response (CAL-85-1 [11]),normalised response (HCC1599),normalised response (Hs578T [12]),normalised response (MDA-MB-436 [13]),normalised response (CAL-148 [14]),normalised response (MDA-MB-231 [15]),normalised response (MCF-10A [16]),normalised response (HDQ-P1 [17]),normalised response (DU-4475 [18]),normalised response (CAL-51 [19]),normalised response (HCC1143),normalised response (HCC1937 [20]),normalised response (BT-474 [21]),normalised response (SK-BR-3),normalised response (BT-549 [22]),normalised response (CAL-85-1 [23]),normalised response (Hs578T [24])
COc1cc([C@@H]2c3cc4c(cc3[C@@H](O[C@@H]3O[C@@H]5CO[C@@H](C)O[C@H]5[C@H](O)[C@H]3O)[C@H]3COC(=O)[C@H]23)OCO4)cc(OC)c1O [Etoposide] (10000 nM),80.9%,109%,49.6%,61%,103%,108%,-48%,109%,78.4%,36.8%,106%,97.3%,75.7%,85.4%,34.3%,91%,88.2%,36.6%,39.9%,70.8%,87.1%,82.3%,19.6%,23.9%,38.8%,67.5%,44.1%,15.8%,35.9%,49.8%,67.3%
CN(N=O)C(=O)N[C@@H](C=O)[C@@H](O)[C@H](O)[C@H](O)CO [Streptozocin] (10000 nM),68.7%,84.9%,107%,106%,88.1%,116%,64.1%,110%,98.1%,102%,71.6%,105%,110%,96.1%,80.7%,98.6%,136%,97.2%,107%,98%,110%,102%,96.1%,91.8%,106%,105%,100%,108%,97.7%,98.5%,109%
CCC1=C[C@@H]2CN(C1)Cc1c([nH]c3ccccc13)[C@@](C(=O)OC)(c1cc3c(cc1OC)N(C)[C@H]1[C@@](O)(C(=O)OC)[C@H](OC(C)=O)[C@]4(CC)C=CCN5CC[C@]31[C@@H]54)C2 [Vinorelbine] (10000 nM),70.8%,90.3%,80.7%,-5.22%,42.7%,41.4%,5.11%,97.8%,90.9%,7%,83.1%,59.1%,75.5%,43.6%,71%,70.8%,-16.6%,24.5%,49.6%,40.1%,78.3%,70.6%,40.4%,27.5%,55.3%,69.8%,48.2%,14.8%,36.1%,48.9%,15.9%
